Test results as given in patent publication US11478474B2, “2-(3′-(hydroxymethyl)-1-methyl-5-((5-(2-methyl-4-(oxetan-3-yl)piperazin-1-yl)pyridin-2-yl)amino)-6-oxo-1,6-dihydro-[3,4′-bipyridin]-2′-yl)-7,7-dimethyl-7,8-dihydro-2H-cyclopenta[4,5]pyrrolo[1,2-a]pyrazin-1(6H)-one as a BTK inhibitor” (HUTCHISON MEDIPHARMA LIMITED, priority 2020, dated 2022).
Values belong to the compound of their own block, whether it stands above or below them.

Assays:
[1] = test system: B cell activation in mouse whole blood induced by anti-IgD antibodies; assay: In vivo efficacy of the inhibitory effect on BTK target (anti-IgD antibody-induced B cell activation in mice whole blood after in vivo administration)
Protocol: (§1) Objects: B cells in mice whole blood were induced and activated by the anti-IgD antibody, and the inhibitory effect of the compound of the present invention on B cell activation in vivo was studied, so as to determine the inhibitory effect of the compound of the present invention on the BTK target in vivo.
(§2) Methods: C57BL/6 mice (female, 18-20 g, purchased from Shanghai Lingchang Biotechnology Co., Ltd.) were grouped according to Table 2.
(§3) The animals of each group were administered, then were placed in CO2 for anesthesia at designated time points, blood samples were taken from […] via retro-orbital bleeding, and heparin was used for anticoagulation; 90 μL of whole blood was taken from mice of each group, and added to a 96 well culture plate, and anti-mouse IgD antibody (BIO-RAD, Cat #MCA4693) was added to each well to a final concentration of 0.01 μg/μL (respectively for the each drug-treated group and anti-IgD antibody-inducted vehicle group); in addition, 90 μL of whole blood of mice in the vehicle group was taken and added to the 96-well culture plate, and PBS (phosphate buffer, GIBCO, Cat #C20012500BT) was added to each well to a final concentration of 0.01 μg/μL (namely, the vehicle control group); Each group was mixed well and incubated in a 37° C./5% CO2 incubator for 4 hours. In addition, the blood of mice in the drug-treated group was centrifuged to separate plasma for blood concentration analysis.
(§4) Calculation for B Cell Activation Ratio: B cell activation ratio=percentage of CD69+CD19+double positive B cells/percentage of CD19+single positive B cells
(§5) Calculation for Inhibition Ratio: Inhibition ratio=(percentage of B cell activation ratio in anti-IgD antibody-induced vehicle group-percentage of B cell activation ratio in drug-treated group)/(percentage of B cell activation ratio in anti-IgD antibody-induced vehicle group-percentage of B cell activation ratio in vehicle control group)×100%
(§6) All data are represented by mean±standard error. For the comparison between each drug-treated group and the anti-IgD antibody-induced vehicle group, p value was calculated by Graphpad Prism using one-way ANOVA analysis of variance and Dunnett's test, and for the comparison between each drug-treated group, p value was calculated by using unpaired t test.

[2] = as above; settings: female, C57BL/6, mouse; 20 mg/kg single oral gavage, 16 h, mice plasma; read-out: Drug concentration in plasma
Protocol: as §1, §2, §3, §4, §5, §6

[3] = Stability test in liver microsomes (mouse); assay type: in vitro ADME; settings: mouse liver microsomes 0.5 mg/mL, compound 1 μM, 37° C.
Source text: (§7) Example 5 Stability Test in Liver Microsomes
(§8) Both male CD-1 mouse pooled liver microsomes and male SD rat pooled liver microsomes were purchased from BioreclamationIVT Corporation, USA.
(§9) Phenacetin, glucose-6-phosphate dehydrogenase (G-6-PDH) and nicotinamide adenine dinucleotide phosphate (NADP) were all purchased from Sigma-Aldrich Corporation, USA. Glucose-6-phosphate (G-6-P) was purchased from Shanghai Eybridge Chemical Technology Co., Ltd.
(§10) Ten mM test compound stock solution: a certain amount of test compound was weighed, and dissolved with an appropriate volume of DMSO to prepare a stock solution with a concentration of 10 mM for use.
(§11) Reaction stopping solution: an appropriate amount of internal standard compound phenacetin was dissolved in acetonitrile to prepare a reaction stopping solution with a concentration of 1000 ng/mL for use at room temperature.
(§12) The test compound stock solution was diluted with an organic solvent (usually a mixture of acetonitrile, methanol and water with various ratios, depending on the solubility of the compound, if necessary, 1 N hydrochloric acid or 1 N sodium hydroxide would be added to facilitate solubilization) to the 0.1 mM (the final concentration of the compound in the reaction system was 1 μM) and the concentration percentage of the organic solvents in the incubation system no more than 1% (wherein the percentage of DMSO was required to be no more than 0.1%). An appropriate amount of 100 mM NADP, 500 mM G-6-P and 100 Unit/mL G-6-PDH were mixed and diluted with ultrapure water (the final system contains 1 mM NADP, 5 mM G-6-P and 1 Unit/mL G-6-PDH), pre-incubated in a 37° C. water bath for 10 minutes and then placed on ice for use as a NADPH regeneration solution. 20 mg/mL liver microsomes solution and 200 mM phosphate buffer was mixed, and diluted with ultrapure water to give a liver microsomes solution containing 2.5 mg/mL liver microsomes (the final concentration of the reaction system is 0.5 mg/mL) and 50 mM phosphate buffer. The diluted liver microsomes solution was mixed with 0.1 mM compound solution, a mixture of 100 mM EDTA, 300 mM MgCl2 solution, 200 mM phosphate buffer (the final system was 3 mM MgCl2, 1 mM EDTA and 50 mM phosphate buffer) and water in an appropriate volume was added. Finally, the NADPH regeneration solution was added, then the reaction solution was placed in a 37° C. water bath to start the reaction (the reaction time was 30 minutes), and the reaction was stopped by adding the ice-cold acetonitrile reaction stopping solution containing the internal standard. The 0-minute sample was not incubated in a 37° C. water bath, and its difference from the 30-minute sample further lies in that the ice-cold acetonitrile reaction stopping solution containing the internal standard was added first, and then the NADPH regeneration solution was added. The sample added with the reaction stopping internal standard solution was vortexed and mixed well, and then centrifuged at 4400 rpm for 10 minutes. The supernatant was taken and diluted ten times with 50% methanol for LC-MS/MS analysis.
(§13) LC-MS/MS was used to determine the concentration of the compound in the sample. The percentage of the remaining compound after 30 minutes of incubation comparing with that in the 0-minute sample was calculated using the peak area ratio of the compound to the internal standard as an indicator, to evaluate the metabolic stability of the compound.
(§14) Instrument: API4500, API4000 or LTQ Mass Spectrometer; the liquid phase is UHPLC system (Shimadzu LC-30 AD, model Nexra X2) including liquid delivery unit, column thermostat, detector and autosampler; or Agilent 1200 Binary Pump series HPLC and CTC Autosampler.
(§15) Chromatographic column: Waters XSELECT Hss T3 C18 (2.5 μm, 2.1×50 mm) or […] (5 μm, 2.0×50 mm)
(§16) A: water with 0.1% FA (formic acid) (with or without 0.1% ACN (acetonitrile))
(§17) B: acetonitrile with 0.1% FA (formic acid).

[4] = Stability test in liver microsomes (rat); assay type: in vitro ADME
Source text: as §7, §8, §9, §10, §11, §12, §13, §14, §15, §16, §17

[5] = target: phosphorylated BTK in Ramos cells (Homo sapiens (Human), UniProt Q06187); assay: Determination of phosphorylated BTK in Ramos cells (BTK phospho-Y223 HTRF); assay type: cell-based; settings: anti-human IgM + hydrogen peroxide stimulation
How it was run: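 Ramos cells starved 2 h in 1% FBS, then treated 1 h with compound (0.00018–3.0 μM, 0.3% DMSO). They were then stimulated 10 min at 37° C. with anti-human IgM (10 μg/mL) plus H2O2 (3.3 mM). Lysates read by BTK phospho-Y223 HTRF (665/615 nm ratio); IC50 fitted from inhibition normalized to stimulated and unstimulated controls.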

[6] = test system: TMD8 subcutaneous xenograft (human diffuse large B-cell lymphoma cells); assay: In vivo efficacy in TMD8 subcutaneous xenograft model in nude mice
Protocol: Example 7 Evaluation of In Vivo Efficacy of the Compound of the Present Invention in TMD8 Subcutaneous Xenograft Model
Objects: To investigate the anti-tumor activity of compound 19 in TMD8 subcutaneous xenograft model in nude mice.
Methods: Human diffuse large B-cell lymphoma cells TMD8 (acquired under license from Tokyo Medical and Dental University) were cultured in RPMI1640 medium containing 10% fetal bovine serum. 1×10^7 tumor cells suspended in RPMI1640 medium mixed well with Matrigel (purchased from Corning, USA) at 1:1 were implanted subcutaneously on the right flank of each male Balb/c nude mouse (Shanghai Lingchang Biotechnology Co., Ltd.), pretreated with cyclophosphamide (at a dose of 200 mg/kg, intraperitoneal injection 24 h before cell inoculation). […] All drugs were administered by oral gavage, once a day, and the vehicle control group was administered orally with 0.5% hydroxypropyl methylcellulose solution (pH=3).
Tumor volumes (tumor volume=0.5×long diameter×short diameter^2) and body weights of the mice were measured regularly. The tumor volume change and body weight were statistically analyzed, with p<0.05 considered statistically significant, and p<0.01 as extremely statistically significant.
The anti-tumor activity was evaluated by tumor growth inhibition. Tumor growth inhibition (TGI %)=100%×(1−(TVDt (treatment group)−TVD0 (treatment group))/(TVDt (control group)−TVD0 (control group))) Relative body weight (RBW %)=BWDt/BWD0×100%
wherein, TVD0 represents the tumor volume obtained at first measurement, namely, the tumor volume before drug administration, and TVDt represents the tumor volume on the day of measurement; BWD0 represents the body weight of the animal obtained at first measurement, namely, the body weight of the animal before drug administration; BWDt represents the body weight of the animal on the day of measurement.

[7] = 50 mg/kg oral gavage once a day, Day 21

phosphorylated BTK in Ramos cells, sequence (Q06187 whole entry): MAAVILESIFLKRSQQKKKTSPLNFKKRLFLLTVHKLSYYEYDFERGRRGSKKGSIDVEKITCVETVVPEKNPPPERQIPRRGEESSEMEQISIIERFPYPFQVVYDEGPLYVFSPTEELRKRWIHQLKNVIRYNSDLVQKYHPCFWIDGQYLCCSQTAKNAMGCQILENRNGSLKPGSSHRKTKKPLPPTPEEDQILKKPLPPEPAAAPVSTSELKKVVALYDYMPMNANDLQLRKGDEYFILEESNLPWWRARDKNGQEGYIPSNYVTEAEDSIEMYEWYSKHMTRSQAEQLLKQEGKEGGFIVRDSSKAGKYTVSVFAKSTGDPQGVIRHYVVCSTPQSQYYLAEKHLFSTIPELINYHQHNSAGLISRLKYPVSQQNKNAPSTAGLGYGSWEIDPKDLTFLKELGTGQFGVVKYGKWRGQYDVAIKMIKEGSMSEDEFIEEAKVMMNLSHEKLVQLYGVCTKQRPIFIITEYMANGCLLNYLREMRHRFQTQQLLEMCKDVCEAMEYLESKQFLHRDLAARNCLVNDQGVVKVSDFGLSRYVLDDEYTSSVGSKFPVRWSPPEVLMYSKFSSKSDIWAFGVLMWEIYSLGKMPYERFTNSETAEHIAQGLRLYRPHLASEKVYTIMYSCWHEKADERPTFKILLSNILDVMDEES

concentration at 16 h [2]: 76.2 ± 41.7 ng/mL
SMILES: Cn1cc(-c2ccnc(-n3ccn4c5c(cc4c3=O)CC(C)(C)C5)c2CO)cc(Nc2ccc(N3CCN4CCOCC4C3)cn2)c1=O (racemic) [Compound 232]
Inhibition ratio (%) ([1]; 20 mg/kg single oral gavage, 16 h): 89% | B cell activation ratio (the proportion of activated B cells to total B cells) ([1]; 20 mg/kg single oral gavage, 16 h, mean ± standard error): 8.4 ± 1.9^***& | inhibition ratio on B cell activation ([1]; 20 mg/kg, 16 hours after administration, mice whole blood, anti-IgD antibody): 89%

MLM (percentage of the remaining compound after 30 minutes of incubation) [3]: 89.5% | RLM (percentage of the remaining compound after 30 minutes of incubation) ([4]; rat liver microsomes 0.5 mg/mL, compound 1 μM, 37° C.): ~100% | IC50 [5]: 10 nM
SMILES: Cn1cc(-c2ccnc(-n3ccn4c5c(cc4c3=O)CC(C)(C)C5)c2CO)cc(Nc2ccc(N3CCN(C4COC4)CC3=O)cn2)c1=O [Compound 34]
stability in rat & mouse liver microsomes compared with the reference GDC-0853 ([4]; rat & mouse liver microsomes, 30 minutes): better than that of the reference GDC-0853

SMILES: C=CC(=O)N1CCC[C@@H](n2nc(-c3ccc(Oc4ccccc4)cc3)c3c(N)ncnc32)C1 [Ibrutinib, reference compound]
Number of animals with CR (Day 21) ([6]; 50 mg/kg oral gavage once a day, 8 animals per group): 1 | Tumor volume (mm^3) ± SD Day 0 ([6]; 50 mg/kg oral gavage once a day, Day 0, before drug administration): 397 ± 42 mm^3 | TGI (%) [6, 7]: 42.4% | Tumor volume (mm^3) ± SD Day 21 [6, 7]: 2027 ± 991 mm^3 | RBW (%) (Day 21) ([6]; 50 mg/kg oral gavage once a day, relative body weight): 111.4% | Tumor growth inhibition (TGI %) ([6]; 50 mg/kg, oral gavage once a day, 21 days after treatment, vs vehicle control): 42.4%
